How the values were obtained:
sPHEX = molecular target: T1, sPHEX (Homo sapiens, UniProt P78562); experiment: Protection of PHEX substrate PTHrP107-139 from sPHEX degradation (RP-HPLC); assay type: biochemical; settings: 1×10^−5M inhibitor, 1.0 μg sPHEX, 30 min, 37° C.; without inhibitor approximately 75% degraded
T1 construct: The soluble form of the metallopeptidase PHEX (sPHEX) was purified to homogeneity; made in house
T1 sequence (P78562 53-749 limits assumed): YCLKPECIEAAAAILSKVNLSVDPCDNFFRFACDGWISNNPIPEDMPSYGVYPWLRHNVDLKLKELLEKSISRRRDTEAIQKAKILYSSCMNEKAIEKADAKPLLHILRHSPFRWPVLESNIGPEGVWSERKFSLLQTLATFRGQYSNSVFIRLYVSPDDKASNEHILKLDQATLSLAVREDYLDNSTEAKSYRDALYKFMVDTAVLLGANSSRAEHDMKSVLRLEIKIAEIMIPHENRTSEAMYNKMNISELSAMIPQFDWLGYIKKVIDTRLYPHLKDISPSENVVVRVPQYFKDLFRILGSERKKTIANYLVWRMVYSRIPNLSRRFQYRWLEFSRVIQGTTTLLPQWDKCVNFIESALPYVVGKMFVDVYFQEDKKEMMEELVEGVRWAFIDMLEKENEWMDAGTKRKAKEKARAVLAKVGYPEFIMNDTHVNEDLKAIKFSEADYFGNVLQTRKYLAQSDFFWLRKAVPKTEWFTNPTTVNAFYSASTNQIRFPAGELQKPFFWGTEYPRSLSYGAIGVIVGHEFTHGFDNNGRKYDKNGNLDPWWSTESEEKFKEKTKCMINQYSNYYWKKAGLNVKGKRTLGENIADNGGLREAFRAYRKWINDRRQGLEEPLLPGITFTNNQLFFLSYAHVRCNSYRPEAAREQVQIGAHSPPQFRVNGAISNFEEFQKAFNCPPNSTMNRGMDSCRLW
Experimental: In general, in order to show inhibition of sPHEX, the enzyme is incubated in the absence or the presence of the inhibiting compound, and a substrate is added in conditions that are suitable for sPHEX enzymatic activity. Hydrolysis of the substrate in the absence or the presence of the inhibiting compound is monitored.
For example, 1.0 μg of purified sPHEX was first incubated at 37° C. for 15 min with or without 1×10^−5M of compound MH-2-64C (FIG. 1) in 90 μl 50 mM MES (2-(N-morpholino)ethanesulfonic acid) pH 6.5, 150 mM NaCl. Then, 2.5 μg of peptide PTHrP107-139 in 10 μl of the same buffer were added and the incubation continued for 30 min. The reaction mixture also contained 1.3 μg of the amino acid Phe which was used as an internal standard. After the incubation period, the reaction was stopped by the addition of EDTA to a final concentration of 5 mM. Detection of cleavage products was performed by reverse phase high performance liquid chromatography (RP-HPLC) on a C18 μBondapak™ analytical column (Waters, Mississauga, ON, Canada) with a UV detector set at 220 nm. […] Results were quantified by comparing the area under the undigested peak of PTHrP107-139, after normalization for the amount of Phe present in the sample. […]

rat mandibular defect = experiment: Bone lesion repair in rat mandibular defect model (hydroxyapatite particles soaked in inhibitor); assay type: in vivo; settings: for bone formation (scanning electron microscopy, % of total defect area): 14 days healing
Experimental: Osteogenic properties of PHEX inhibitors can be shown in a model of rat mandibular defect. For example, a 2 mm size bone defect was created in the rat mandible as described previously (Vu et al., 1999). Rats were anesthetized and the vestibular surface of the right mandibular ramus was exposed as follow: an incision was made through the skin along an imaginary line forming a 90° angle with the lower lip to access the muscle layer. A scalpel blade was used to make an incision parallel to the fibers of the deep portion of masseter muscle, about 2 mm posterior to the facial artery (largest branch of the external carotid), in the portion where it gives rise to the labial mandibular artery. The periosteum was elevated and the underlying bony surface exposed. A 2 mm×2 mm bony window was drilled between the second and third molar using a slow-speed dental drill with a carbide round burr size 1.4 mm (Brasseler) and a drill size 2 mm (Straumann Canada Ltd). Saline irrigation was used during the drilling. Porous hydroxyapatite particles (Fin-Ceramica Faenza s.r.l.) with pore size ranged from 450 to 600 μm were accommodated in the bony hole and pushed into it. The particles had been incubated previously in solutions of varying concentrations of PHEX inhibitor or vehicle for 16 to 24 hours at 4° C. Once the bony window was filled the lesion was covered with a membrane of hydroxyapatite (Fin-Ceramica Faenza s.r.l.) which was fixed to the surrounding bone surface with topical tissue adhesive. The muscle fibers were carefully repositioned on the mandible and sutured with absorbable surgical sutures (Chromic Gut, Ethicon Inc.). The skin was sutured for total coverage with silk sutures (Sherwood Davis & Geck, Wayne). After 7 days of treatment the bone lesion was exposed and varying concentrations of PHEX inhibitor or vehicle was reapplied to hydroxyapatite particles. Treatment was continued for another 7 days.
After the 14 day healing period, bone formation at the defect was evaluated by scanning electron microscopy and microcomputed tomography. Animals were sacrificed by intravascular perfusion through the left ventricle with 4% paraformaldehyde and 0.1% glutaraldehyde solution. Treated hemimandibles were taken, immersed in the fixative overnight at 4° C. then washed and kept in 0.1 M cacodylate buffer pH 8.0 until analysis. Specimens for quantification by scanning electron microscopy were dehydrated in a graded alcohol series and embedded in LR White resin (Marivac) for further sectioning along their longitudinal axis. […] Amount of bone tissue present in the sections was quantified by manual tracing using the MOP-3 system (Carl Zeiss) and was expressed as a percentage of the total defect area. […]

## O=C(O)CC(CC(=O)NO)C(=O)NCCc1ccc(-c2ccccc2)cc1 (centres unmarked) [Example 126, 3-(2-Biphenyl-4-yl-ethylcarbamoyl)-4-hydroxycarbamoyl-butyric acid]
sPHEX
  degradation of PTHrP107-139 by sPHEX: fully prevented
Rat mandibular defect; 1×10^−5 M on hydroxyapatite particles, compared to saline
  bone formation (scanning electron microscopy, % of total defect area): reduced significantly
Rat mandibular defect; high inhibitor dose, one representative specimen
  bone formation (microcomputed tomography 3D reconstruction): reduced bone formation
Rat mandibular defect; low dose of inhibitor vs particles soaked in saline, one representative specimen
  bone around particles (microcomputed tomography 3D reconstruction): more bone
Rat mandibular defect; lower concentrations on hydroxyapatite particles
  bone formation (scanning electron microscopy, % of total defect area): significantly stimulated

— patent publication US7105539B2, “Derivatives of succinic and glutaric acids and analogs thereof useful as inhibitors of phex” (Enobia Pharma, priority 2002, dated 2006)
